{"source": "patent US7341711B2", "about": "“Porphyrin compounds and their use in high-field MRI” (Guerbet, priority 2004, dated 2008)", "origin": "cited, not measured here", "note": "“And” between values parts separate entries of the source, which are not always exact repeats. Equal entries are not always repeated. Where two headings read alike, the source gives them in different places.", "data": [{"smiles": "O=S(=O)([O-])c1ccc(-c2c3nc(c(-c4ccc(S(=O)(=O)[O-])cc4)c4ccc([n-]4)c(-c4ccc(S(=O)(=O)[O-])cc4)c4ccc([n-]4)c(-c4ccc(S(=O)(=O)[O-])cc4)c4nc2C=C4)C=C3)cc1.[Mn+3]", "note": "[MnTPPS4]", "values": [{"measurement": "relaxivity", "setting": "at 1.5 T", "result": 17, "unit": "mmol⁻¹ s⁻¹"}, {"measurement": "relaxivity", "setting": "field not stated", "result": "~10", "unit": "mmol⁻¹ s⁻¹"}, {"measurement": "relaxivity", "setting": "in blood plasma at 0.25 T", "result": "10.7 mmol⁻¹ s⁻¹ and 12.2 mmol⁻¹ s⁻¹"}]}]}
